Where two headings read alike, the source gives them in different places.
Key:
CLK2 = biological target: T1, CLK2 (Homo sapiens, UniProt P49760); assay: KinomeScan kinase profiling; format: binding; details: 10 μM
T1 construct: purchased Ambit Biosciences (San Diego, Calif.)

EPHA2 = biological target: T2, EPHA2 (Homo sapiens, UniProt P29317); assay: KinomeScan kinase profiling; format: binding; details: 10 μM
T2 construct: purchased Ambit Biosciences (San Diego, Calif.)

BRAF = biological target: T3, BRAF (Homo sapiens, UniProt P15056); assay: KinomeScan kinase profiling; format: binding; details: 10 μM
T3 construct: purchased Ambit Biosciences

RPS6KA3 = biological target: T4, RPS6KA3 (Homo sapiens, UniProt P51812); assay: KinomeScan kinase profiling; format: binding; details: 10 μM
T4 construct: purchased Ambit Biosciences

PAK4 = PAK4 (Homo sapiens, UniProt O96013); assay: KinomeScan kinase profiling; format: binding; details: 10 μM
BRAF(V600E) = biological target: T5, BRAF(V600E) (Homo sapiens, UniProt P15056, V600E); assay: KinomeScan kinase profiling; format: binding; details: 10 μM
T5 construct: purchased Ambit Biosciences

LIMK1 = LIMK1 (Homo sapiens, UniProt P53667); assay: KinomeScan kinase profiling; format: binding; details: 10 μM
JAK2(Kin.Dom2) = biological target: T6, JAK2(Kin.Dom2) (Homo sapiens, UniProt O60674); assay: KinomeScan kinase profiling; format: binding; details: 10 μM
T6 construct: JAK2(Kin.Dom2); purchased Ambit Biosciences

CK1ε = biological target: T7, CK1ε (Homo sapiens, UniProt P49674); assay: In vitro kinase assay (33P, peptide substrate); format: biochemical
T7 construct: purchased Invitrogen

AURKA = biological target: T8, AURKA (Homo sapiens, UniProt O14965); assay: KinomeScan kinase profiling; format: binding; details: 10 μM
T8 construct: purchased Ambit Biosciences

PCTK1 = PCTK1 (Homo sapiens, UniProt Q00536); assay: KinomeScan kinase profiling; format: binding; details: 10 μM
CK1α = biological target: T9, CK1α (Homo sapiens, UniProt P48729); assay: In vitro kinase assay (33P, peptide substrate); format: biochemical
T9 construct: purchased Invitrogen

p38-alpha = p38-alpha (Homo sapiens, UniProt Q16539); assay: KinomeScan kinase profiling; format: binding; details: 10 μM
CK1γ1 = biological target: T10, CK1γ1 (Homo sapiens, UniProt Q9HCP0); assay: In vitro kinase assay (33P, peptide substrate); format: biochemical
T10 construct: purchased Invitrogen

STK3 = biological target: T11, STK3 (Homo sapiens, UniProt Q13188); assay: KinomeScan kinase profiling; format: binding; details: 10 μM
T11 construct: purchased Ambit Biosciences

PKAC-alpha = biological target: T12, PKAC-alpha (Homo sapiens, UniProt P17612); assay: KinomeScan kinase profiling; format: binding; details: 10 μM
T12 construct: purchased Ambit Biosciences

p38-beta = p38-beta (Homo sapiens, UniProt Q15759); assay: KinomeScan kinase profiling; format: binding; details: 10 μM
CK1δ = biological target: T13, CK1δ (Homo sapiens, UniProt P48730); assay: In vitro kinase assay (33P, peptide substrate); format: biochemical
T13 construct: purchased Upstate

AMPK-alpha1 = biological target: T14, AMPK-alpha1 (Homo sapiens, UniProt Q13131); assay: KinomeScan kinase profiling; format: binding; details: 10 μM
T14 construct: purchased Ambit Biosciences

RPS6KA2 = biological target: T15, RPS6KA2 (Homo sapiens, UniProt Q15349); assay: KinomeScan kinase profiling; format: binding; details: 10 μM
T15 construct: purchased Ambit Biosciences

CDK5 = biological target: T16, CDK5 (Homo sapiens, UniProt Q00535); assay: KinomeScan kinase profiling; format: binding; details: 10 μM
T16 construct: purchased Ambit Biosciences (San Diego, Calif.)

EPHA3 = biological target: T17, EPHA3 (Homo sapiens, UniProt P29320); assay: KinomeScan kinase profiling; format: binding; details: 10 μM
T17 construct: purchased Ambit Biosciences (San Diego, Calif.)
T17 sequence (P29320 21-983): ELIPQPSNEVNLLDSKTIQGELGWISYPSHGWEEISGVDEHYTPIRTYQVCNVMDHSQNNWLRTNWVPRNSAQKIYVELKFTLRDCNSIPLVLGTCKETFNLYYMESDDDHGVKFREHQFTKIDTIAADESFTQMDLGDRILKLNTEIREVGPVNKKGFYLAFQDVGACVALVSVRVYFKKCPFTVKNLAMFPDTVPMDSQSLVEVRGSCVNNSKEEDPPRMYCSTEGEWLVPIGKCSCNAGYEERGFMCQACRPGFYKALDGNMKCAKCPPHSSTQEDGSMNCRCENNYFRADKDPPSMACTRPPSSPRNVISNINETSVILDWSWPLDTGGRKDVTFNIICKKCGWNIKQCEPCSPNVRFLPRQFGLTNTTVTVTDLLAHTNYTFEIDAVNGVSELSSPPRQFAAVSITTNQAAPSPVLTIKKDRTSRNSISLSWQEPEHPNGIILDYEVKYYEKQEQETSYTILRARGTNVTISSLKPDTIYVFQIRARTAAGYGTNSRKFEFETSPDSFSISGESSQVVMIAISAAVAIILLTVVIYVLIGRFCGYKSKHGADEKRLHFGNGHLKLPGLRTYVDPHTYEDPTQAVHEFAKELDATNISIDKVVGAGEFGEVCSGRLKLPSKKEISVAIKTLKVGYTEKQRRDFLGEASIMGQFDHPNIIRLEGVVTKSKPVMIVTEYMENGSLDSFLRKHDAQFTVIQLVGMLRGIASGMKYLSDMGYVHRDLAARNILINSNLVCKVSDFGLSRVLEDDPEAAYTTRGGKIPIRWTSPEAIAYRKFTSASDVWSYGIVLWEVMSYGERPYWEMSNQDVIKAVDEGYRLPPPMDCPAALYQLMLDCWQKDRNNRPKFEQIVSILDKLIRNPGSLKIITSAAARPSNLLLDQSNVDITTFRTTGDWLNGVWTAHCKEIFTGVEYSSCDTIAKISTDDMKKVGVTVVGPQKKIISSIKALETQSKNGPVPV

Sequence of p38-beta (Q15759 whole entry): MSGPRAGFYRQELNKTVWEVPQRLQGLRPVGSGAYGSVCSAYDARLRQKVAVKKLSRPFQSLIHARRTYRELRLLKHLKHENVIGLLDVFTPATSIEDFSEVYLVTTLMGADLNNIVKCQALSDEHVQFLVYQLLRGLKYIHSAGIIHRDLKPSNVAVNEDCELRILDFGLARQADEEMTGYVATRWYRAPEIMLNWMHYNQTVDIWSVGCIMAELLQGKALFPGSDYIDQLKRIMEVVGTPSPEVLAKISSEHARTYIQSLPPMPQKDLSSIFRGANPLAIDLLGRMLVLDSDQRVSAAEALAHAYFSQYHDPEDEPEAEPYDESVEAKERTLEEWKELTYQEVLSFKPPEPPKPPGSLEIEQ
Sequence of p38-alpha (Q16539 whole entry): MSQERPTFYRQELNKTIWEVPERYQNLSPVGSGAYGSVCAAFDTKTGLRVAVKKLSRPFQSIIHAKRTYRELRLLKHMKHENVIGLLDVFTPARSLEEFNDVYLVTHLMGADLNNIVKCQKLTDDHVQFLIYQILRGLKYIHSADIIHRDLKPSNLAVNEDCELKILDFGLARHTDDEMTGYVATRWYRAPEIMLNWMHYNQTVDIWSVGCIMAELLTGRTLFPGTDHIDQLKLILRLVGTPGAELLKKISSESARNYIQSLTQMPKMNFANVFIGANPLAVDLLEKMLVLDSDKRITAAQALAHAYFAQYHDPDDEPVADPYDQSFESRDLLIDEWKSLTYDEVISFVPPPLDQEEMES
T16 sequence (Q00535 whole entry): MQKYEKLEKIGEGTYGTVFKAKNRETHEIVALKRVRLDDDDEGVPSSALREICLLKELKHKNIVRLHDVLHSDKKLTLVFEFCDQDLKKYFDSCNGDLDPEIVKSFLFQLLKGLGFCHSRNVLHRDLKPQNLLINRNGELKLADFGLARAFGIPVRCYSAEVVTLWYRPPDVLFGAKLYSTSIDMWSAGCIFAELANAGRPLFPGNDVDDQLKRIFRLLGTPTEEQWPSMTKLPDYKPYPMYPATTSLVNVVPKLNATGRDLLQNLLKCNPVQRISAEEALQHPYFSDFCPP
Sequence of PCTK1 (Q00536 whole entry): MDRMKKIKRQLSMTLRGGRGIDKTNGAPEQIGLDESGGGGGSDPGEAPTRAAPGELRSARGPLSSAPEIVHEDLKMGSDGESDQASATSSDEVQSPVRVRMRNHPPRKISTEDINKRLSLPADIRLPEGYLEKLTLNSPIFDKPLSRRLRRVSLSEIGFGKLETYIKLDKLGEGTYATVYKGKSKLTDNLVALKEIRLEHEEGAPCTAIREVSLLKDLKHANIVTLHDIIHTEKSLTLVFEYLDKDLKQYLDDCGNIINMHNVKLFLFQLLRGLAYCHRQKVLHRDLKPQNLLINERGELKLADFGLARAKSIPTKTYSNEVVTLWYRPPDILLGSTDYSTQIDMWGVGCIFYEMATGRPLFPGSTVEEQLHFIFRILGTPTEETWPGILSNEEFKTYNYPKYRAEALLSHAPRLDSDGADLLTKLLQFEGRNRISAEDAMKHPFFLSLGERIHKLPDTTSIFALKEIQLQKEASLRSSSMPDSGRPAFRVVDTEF
T11 sequence (Q13188 whole entry): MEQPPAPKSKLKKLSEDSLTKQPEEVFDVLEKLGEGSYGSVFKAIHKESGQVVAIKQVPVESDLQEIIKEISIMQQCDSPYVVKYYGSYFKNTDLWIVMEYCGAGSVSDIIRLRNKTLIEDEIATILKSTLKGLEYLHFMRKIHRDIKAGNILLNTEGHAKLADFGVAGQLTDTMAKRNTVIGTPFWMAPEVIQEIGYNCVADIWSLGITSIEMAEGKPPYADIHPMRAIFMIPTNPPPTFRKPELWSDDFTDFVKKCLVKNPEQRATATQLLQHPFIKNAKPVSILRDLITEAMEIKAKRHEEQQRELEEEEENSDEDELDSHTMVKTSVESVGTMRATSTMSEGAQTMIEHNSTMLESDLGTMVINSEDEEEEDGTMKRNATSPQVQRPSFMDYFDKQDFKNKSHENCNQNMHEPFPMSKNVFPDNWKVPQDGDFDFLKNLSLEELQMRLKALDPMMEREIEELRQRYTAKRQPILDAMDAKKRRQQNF
T7 sequence (P49674 whole entry): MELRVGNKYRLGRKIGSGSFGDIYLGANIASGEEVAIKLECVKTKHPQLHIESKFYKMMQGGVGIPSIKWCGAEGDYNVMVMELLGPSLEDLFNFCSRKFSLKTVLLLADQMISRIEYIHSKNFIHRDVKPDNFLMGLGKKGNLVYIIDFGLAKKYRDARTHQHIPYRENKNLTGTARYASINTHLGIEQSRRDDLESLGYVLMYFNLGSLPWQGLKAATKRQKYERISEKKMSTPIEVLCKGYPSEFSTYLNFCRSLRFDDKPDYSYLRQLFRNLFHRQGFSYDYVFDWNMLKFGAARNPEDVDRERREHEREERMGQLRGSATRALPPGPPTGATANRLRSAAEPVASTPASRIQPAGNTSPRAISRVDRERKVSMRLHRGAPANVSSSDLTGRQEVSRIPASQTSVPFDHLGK
T4 sequence (P51812 whole entry): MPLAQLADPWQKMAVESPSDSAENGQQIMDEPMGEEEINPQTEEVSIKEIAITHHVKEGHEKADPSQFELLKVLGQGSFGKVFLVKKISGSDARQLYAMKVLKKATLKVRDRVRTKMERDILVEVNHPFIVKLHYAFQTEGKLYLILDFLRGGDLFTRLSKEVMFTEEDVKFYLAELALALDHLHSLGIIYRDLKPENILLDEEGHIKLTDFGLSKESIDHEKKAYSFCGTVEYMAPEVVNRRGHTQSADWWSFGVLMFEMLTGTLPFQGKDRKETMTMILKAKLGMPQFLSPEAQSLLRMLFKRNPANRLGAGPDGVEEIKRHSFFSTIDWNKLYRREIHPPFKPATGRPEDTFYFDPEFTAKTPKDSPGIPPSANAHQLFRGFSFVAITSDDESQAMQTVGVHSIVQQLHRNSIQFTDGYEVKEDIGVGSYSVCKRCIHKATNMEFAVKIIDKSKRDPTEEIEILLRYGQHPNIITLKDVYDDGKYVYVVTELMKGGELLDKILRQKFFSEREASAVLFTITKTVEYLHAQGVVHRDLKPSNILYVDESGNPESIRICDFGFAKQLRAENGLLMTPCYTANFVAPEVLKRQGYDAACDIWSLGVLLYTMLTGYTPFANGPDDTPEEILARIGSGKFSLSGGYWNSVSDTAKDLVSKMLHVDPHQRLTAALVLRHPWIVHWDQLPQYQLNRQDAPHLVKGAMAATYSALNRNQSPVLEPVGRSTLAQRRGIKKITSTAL
T5 sequence (P15056 whole entry V600E): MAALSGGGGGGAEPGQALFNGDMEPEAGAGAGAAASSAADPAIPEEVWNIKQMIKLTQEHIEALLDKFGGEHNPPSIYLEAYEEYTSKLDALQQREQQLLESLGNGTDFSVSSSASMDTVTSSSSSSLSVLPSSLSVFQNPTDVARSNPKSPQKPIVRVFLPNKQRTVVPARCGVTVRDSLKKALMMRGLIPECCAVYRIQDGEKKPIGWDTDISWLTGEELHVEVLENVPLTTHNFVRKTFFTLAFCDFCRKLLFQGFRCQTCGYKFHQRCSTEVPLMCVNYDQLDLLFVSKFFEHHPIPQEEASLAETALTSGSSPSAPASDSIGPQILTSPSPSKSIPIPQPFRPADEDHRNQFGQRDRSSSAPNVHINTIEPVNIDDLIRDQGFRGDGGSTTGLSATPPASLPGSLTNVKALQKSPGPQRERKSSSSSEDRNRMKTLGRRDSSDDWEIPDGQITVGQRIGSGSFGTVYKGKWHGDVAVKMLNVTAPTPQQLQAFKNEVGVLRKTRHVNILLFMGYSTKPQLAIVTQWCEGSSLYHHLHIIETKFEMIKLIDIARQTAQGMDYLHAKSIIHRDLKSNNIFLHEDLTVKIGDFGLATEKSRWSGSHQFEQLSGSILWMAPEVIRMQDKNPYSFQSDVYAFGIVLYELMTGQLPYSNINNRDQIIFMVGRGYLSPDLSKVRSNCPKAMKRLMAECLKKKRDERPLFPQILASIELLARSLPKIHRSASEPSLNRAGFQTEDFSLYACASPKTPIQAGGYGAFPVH
T3 sequence (P15056 whole entry): as the sequence (P15056 whole entry V600E) above, with E600V counted along it

Structure (SMILES)	% Binding (CLK2) [%]	% Binding (EPHA2) [%]	% Binding (BRAF) [%]	% Binding (RPS6KA3) [%]	% Binding (PAK4) [%]	% Binding (BRAF(V600E)) [%]	% Binding (LIMK1) [%]	% Binding (JAK2(Kin.Dom2)) [%]	% Binding (AURKA) [%]	% Binding (PCTK1) [%]	% Binding (p38-alpha) [%]	% Binding (STK3) [%]	% Binding (PKAC-alpha) [%]	% Binding (p38-beta) [%]	% Binding (AMPK-alpha1) [%]	% Binding (RPS6KA2) [%]	% Binding (CDK5) [%]	% Binding (EPHA3) [%]	other results
NC(=O)c1cc(-c2ccncc2)c[nH]1 [Compound A, 4-Pyridin-4-yl-1H-pyrrole-2-carboxylic acid amide]	<50	<50	<50	<50	<50	<50	<50	<50	<50	<50	<50	<50	<50	<50	<50	<50	<50	<50	IC50 (CK1ε; CK1ε, 50 μM ATP, read-out: IC50): 17.3 µM; IC50 (CK1α; CK1α, 50 μM ATP, read-out: IC50): 1.2 µM; IC50 (CK1γ1; CK1γ1, 50 μM ATP, read-out: IC50): > 100 µM; IC50 (CK1δ; CK1δ, 50 μM ATP, read-out: IC50): 7.57 µM
COc1cc(OC)c(C=C2C(O)=Nc3ccccc32)c(OC)c1 [IC261, 3-[(2,4,6-trimethoxyphenyl)methylidenyl]-indolin-2-one]	<50	<50	<50	<50	<50	<50	<50	<50	<50	<50	<50	<50	<50	<50	<50	<50	<50	<50	IC50 (CK1ε): 5.97 µM; IC50 (CK1α): 6.21 µM; IC50 (CK1γ1): > 100 µM; IC50 (CK1δ): 1.5 µM

Source: US20090099237A1, “Methods of treating inflammatory diseases” (Roche Palo Alto LLC, priority 2007, published 2009)
